Measured values from publication PMC12879253 (Molecular pharmaceutics, 2025).

Tests used:
[1] = test system: NCI/ADR-RES ovarian cancer cell; settings: overexpresses p-gp; cited from earlier work
[2] = test system: NCI/ADR-RES drug resistant ovarian cancer xenografts; test: Efficacy in NCI/ADR-RES xenografts; format: in vivo, mouse; settings: doxorubicin 2.0 mg/kg iv, terminated after the third dose
[3] = aqueous buffer; cited from earlier work

Compound	effectiveness in drug-resistant cells [1]	body weight loss [2]	half-life of hydrolysis to dox [3] [min]
COc1cccc2c1C(=O)c1c(O)c3c(c(O)c1C2=O)C[C@@](O)(C(=O)CO)C[C@@H]3O[C@H]1C[C@H](N)[C@H](O)[C@H](C)O1 [dox, Doxorubicin]	not effective	more than 20%	
COc1cccc2c1C(=O)c1c(O)c3c(c(O)c1C2=O)C[C@@](O)(C(=O)CO)C[C@@H]3O[C@H]1C[C@@H]2NCO[C@@H]2[C@H](C)O1 [doxaz, Doxazolidine]	effective		3
CC(=O)O[C@H]1C(=O)[C@@]2(C)[C@H]([C@H](OC(=O)c3ccccc3)[C@]3(O)C[C@H](OC(=O)[C@H](O)[C@@H](NC(=O)c4ccccc4)c4ccccc4)C(C)=C1C3(C)C)[C@]1(OC(C)=O)CO[C@@H]1C[C@@H]2O [paclitaxel]	not effective		
